Data published in PubChem BioAssay AID2060627 (Molecular Pharmacology Branch, DTP, NCI, 2025).
Values belong to the molecule of their own block, whether it stands above or below them.

Tested on: 156681-154-R-J1-PDC complex spheroid viability
Experiment: Anticancer human tumor 156681-154-R-J1-PDC patient-derived melanoma cell line growth inhibition [CLK]
Settings: for IC50: curve of first compound; for viability, T/C: stronger effect = lower value
How it was run: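 Multi-cell-type spheroids combined patient-derived tumor cells with HUVEC endothelial cells and human mesenchymal stem cells. Paired agents were dosed in half-log steps down from about clinical Cmax, or from 10 microM where Cmax was unknown.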

[1] = second compound 0.0316 µM, first compound 0.0316 µM
[2] = second compound 0.0316 µM, first compound 0.1 µM
[3] = second compound 0.0316 µM, first compound 0.316 µM
[4] = second compound 0.0316 µM, first compound 1 µM
[5] = second compound 0.0316 µM, first compound 3.16 µM
[6] = second compound 0.0316 µM, first compound 10 µM
[7] = second compound 0.1 µM, first compound 0.0316 µM
[8] = second compound 0.1 µM, first compound 0.1 µM
[9] = second compound 0.1 µM, first compound 0.316 µM
[10] = second compound 0.1 µM, first compound 1 µM
[11] = second compound 0.1 µM, first compound 3.16 µM
[12] = second compound 0.1 µM, first compound 10 µM
[13] = second compound 0.316 µM, first compound 0.0316 µM
[14] = second compound 0.316 µM, first compound 0.1 µM
[15] = second compound 0.316 µM, first compound 0.316 µM
[16] = second compound 0.316 µM, first compound 1 µM
[17] = second compound 0.316 µM, first compound 3.16 µM
[18] = second compound 0.316 µM, first compound 10 µM
[19] = second compound 1 µM, first compound 0.0316 µM
[20] = second compound 1 µM, first compound 0.1 µM
[21] = second compound 1 µM, first compound 0.316 µM
[22] = second compound 1 µM, first compound 1 µM
[23] = second compound 1 µM, first compound 3.16 µM
[24] = second compound 1 µM, first compound 10 µM
[25] = second compound 3.16 µM, first compound 0.0316 µM
[26] = second compound 3.16 µM, first compound 0.1 µM
[27] = second compound 3.16 µM, first compound 0.316 µM
[28] = second compound 3.16 µM, first compound 1 µM
[29] = second compound 3.16 µM, first compound 3.16 µM
[30] = second compound 3.16 µM, first compound 10 µM
[31] = second compound 10 µM, first compound 0.0316 µM
[32] = second compound 10 µM, first compound 0.1 µM
[33] = second compound 10 µM, first compound 0.316 µM
[34] = second compound 10 µM, first compound 1 µM
[35] = second compound 10 µM, first compound 3.16 µM
[36] = second compound 10 µM, first compound 10 µM
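Note: spheroids exposed to the agents for seven days.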
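Throughout, for viability, T/C: 100% = DMSO vehicle control viability.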

IC50 (second compound 0.0316 µM): 1730 nM
IC50 (second compound 0.1 µM): 1110 nM
IC50 (second compound 0.316 µM): 1260 nM
IC50 (second compound 1 µM): 1020 nM
IC50 (second compound 3.16 µM): < 31.6 nM
IC50 (second compound 10 µM): < 31.6 nM
Structure (SMILES): C=C(F)C(=O)N1CCN(c2nc(OCC3CCCN3C)nc3c2CCN(c2cccc4cccc(Cl)c24)C3)CC1CC#N (stereo not given) + CNC(=O)c1ccc(Nc2nc(OC3CCCC3)c3c(-c4ccc5nc(C)oc5c4)c[nH]c3n2)c(OC)c1
viability, T/C [1]: 70.9%
viability, T/C [2]: 92.6%
viability, T/C [3]: 76.5%
viability, T/C [4]: 87.4%
viability, T/C [5]: 15.2%
viability, T/C [6]: 0.17%
viability, T/C [7]: 45.3%
viability, T/C [8]: 56.5%
viability, T/C [9]: 54.9%
viability, T/C [10]: 59%
viability, T/C [11]: 11.4%
viability, T/C [12]: 2.23%
viability, T/C [13]: 46.7%
viability, T/C [14]: 49.5%
viability, T/C [15]: 77.3%
viability, T/C [16]: 66.5%
viability, T/C [17]: 10%
viability, T/C [18]: 0.09%
viability, T/C [19]: 59.3%
viability, T/C [20]: 53.3%
viability, T/C [21]: 43.9%
viability, T/C [22]: 50.9%
viability, T/C [23]: 3.8%
viability, T/C [24]: 0.09%
viability, T/C [25]: 48.2%
viability, T/C [26]: 33.5%
viability, T/C [27]: 37.1%
viability, T/C [28]: 42.6%
viability, T/C [29]: 2.84%
viability, T/C [30]: 0.11%
viability, T/C [31]: 39.2%
viability, T/C [32]: 37%
viability, T/C [33]: 28.7%
viability, T/C [34]: 40.4%
viability, T/C [35]: 1.02%
viability, T/C [36]: 4.8%

IC50 (second compound 0.0316 µM): 452 nM
IC50 (second compound 0.1 µM): 399 nM
IC50 (second compound 0.316 µM): 49.4 nM
IC50 (second compound 1 µM): < 31.6 nM
IC50 (second compound 3.16 µM): < 31.6 nM
IC50 (second compound 10 µM): < 31.6 nM
Structure (SMILES): CC(Nc1ccc2c(c1)OCCn1cc(N3C(=O)OCC3C(F)F)nc1-2)C(N)=O (stereo not given) + CNC(=O)c1ccc(Nc2nc(OC3CCCC3)c3c(-c4ccc5nc(C)oc5c4)c[nH]c3n2)c(OC)c1
viability, T/C [1]: 76.8%
viability, T/C [2]: 61%
viability, T/C [3]: 44.5%
viability, T/C [4]: 53.9%
viability, T/C [5]: 33.1%
viability, T/C [6]: 23.1%
viability, T/C [7]: 49.9%
viability, T/C [8]: 64.9%
viability, T/C [9]: 47.7%
viability, T/C [10]: 43%
viability, T/C [11]: 26.4%
viability, T/C [12]: 19.2%
viability, T/C [13]: 52.7%
viability, T/C [14]: 47%
viability, T/C [15]: 34.1%
viability, T/C [16]: 27.9%
viability, T/C [17]: 24.6%
viability, T/C [18]: 15.8%
viability, T/C [19]: 47.5%
viability, T/C [20]: 30%
viability, T/C [21]: 28.1%
viability, T/C [22]: 24.3%
viability, T/C [23]: 19.3%
viability, T/C [24]: 8.72%
viability, T/C [25]: 48.3%
viability, T/C [26]: 36.1%
viability, T/C [27]: 27.2%
viability, T/C [28]: 18.9%
viability, T/C [29]: 10.7%
viability, T/C [30]: 8.42%
viability, T/C [31]: 33.4%
viability, T/C [32]: 29.9%
viability, T/C [33]: 18.1%
viability, T/C [34]: 17.7%
viability, T/C [35]: 13.9%
viability, T/C [36]: 7.86%

More lines, now with the values behind:

Structure (SMILES): C#Cc1c(F)ccc2cc(O)cc(-c3ncc4c(N5CC6CCC(C5)N6)nc(OCC56CCCN5CC(F)C6)nc4c3F)c12 (stereo not given) + CNC(=O)c1ccc(Nc2nc(OC3CCCC3)c3c(-c4ccc5nc(C)oc5c4)c[nH]c3n2)c(OC)c1
IC50 (second compound 0.0316 µM): > 10000 nM
IC50 (second compound 0.1 µM): > 10000 nM
IC50 (second compound 0.316 µM): > 10000 nM
IC50 (second compound 1 µM): 114 nM
IC50 (second compound 3.16 µM): < 31.6 nM
IC50 (second compound 10 µM): < 31.6 nM
viability, T/C [1]: 86%
viability, T/C [2]: 94.4%
viability, T/C [3]: 104%
viability, T/C [4]: 109%
viability, T/C [5]: 113%
viability, T/C [6]: 101%
viability, T/C [7]: 53.5%
viability, T/C [8]: 73.8%
viability, T/C [9]: 60.3%
viability, T/C [10]: 70%
viability, T/C [11]: 73.6%
viability, T/C [12]: 62.9%
viability, T/C [13]: 62.4%
viability, T/C [14]: 48.6%
viability, T/C [15]: 66.4%
viability, T/C [16]: 65.9%
viability, T/C [17]: 67%
viability, T/C [18]: 65.2%
viability, T/C [19]: 43.2%
viability, T/C [20]: 53.5%
viability, T/C [21]: 47.9%
viability, T/C [22]: 56%
viability, T/C [23]: 63.6%
viability, T/C [24]: 31.6%
viability, T/C [25]: 54.5%
viability, T/C [26]: 49.8%
viability, T/C [27]: 39.2%
viability, T/C [28]: 49.8%
viability, T/C [29]: 50.4%
viability, T/C [30]: 20.2%
viability, T/C [31]: 45.7%
viability, T/C [32]: 38.5%
viability, T/C [33]: 36.7%
viability, T/C [34]: 50%
viability, T/C [35]: 43%
viability, T/C [36]: 13.2%

Structure (SMILES): CC(CO)NC(=O)c1cc(-c2ccc(Cl)cc2)nn(-c2cnn(C)c2)c1=O (stereo not given) + CNC(=O)c1ccc(Nc2nc(OC3CCCC3)c3c(-c4ccc5nc(C)oc5c4)c[nH]c3n2)c(OC)c1
IC50 (second compound 0.0316 µM): > 10000 nM
IC50 (second compound 0.1 µM): > 10000 nM
IC50 (second compound 0.316 µM): 4910 nM
IC50 (second compound 1 µM): < 31.6 nM
IC50 (second compound 3.16 µM): < 31.6 nM
IC50 (second compound 10 µM): < 31.6 nM
viability, T/C [1]: 83.5%
viability, T/C [2]: 107%
viability, T/C [3]: 122%
viability, T/C [4]: 101%
viability, T/C [5]: 86.5%
viability, T/C [6]: 56.8%
viability, T/C [7]: 53.1%
viability, T/C [8]: 84.6%
viability, T/C [9]: 78.9%
viability, T/C [10]: 81.7%
viability, T/C [11]: 67.2%
viability, T/C [12]: 50.6%
viability, T/C [13]: 62.9%
viability, T/C [14]: 71.4%
viability, T/C [15]: 58.8%
viability, T/C [16]: 58.8%
viability, T/C [17]: 59.3%
viability, T/C [18]: 38.2%
viability, T/C [19]: 50.8%
viability, T/C [20]: 42.9%
viability, T/C [21]: 37.6%
viability, T/C [22]: 44.8%
viability, T/C [23]: 39.2%
viability, T/C [24]: 35.3%
viability, T/C [25]: 47.4%
viability, T/C [26]: 36.9%
viability, T/C [27]: 42.1%
viability, T/C [28]: 36.7%
viability, T/C [29]: 37.8%
viability, T/C [30]: 23.2%
viability, T/C [31]: 42.6%
viability, T/C [32]: 43.8%
viability, T/C [33]: 35.8%
viability, T/C [34]: 35.6%
viability, T/C [35]: 29.5%
viability, T/C [36]: 21.2%

Structure (SMILES): COc1c(OCCCN2CCOCC2)ccc2c3n(c(=NC(=O)c4cnc(N)nc4)nc12)CCN3 + CNC(=O)c1ccc(Nc2nc(OC3CCCC3)c3c(-c4ccc5nc(C)oc5c4)c[nH]c3n2)c(OC)c1
IC50 (second compound 0.0316 µM): 17.4 nM
IC50 (second compound 0.1 µM): 10.2 nM
IC50 (second compound 0.316 µM): 7 nM
IC50 (second compound 1 µM): 3.39 nM
IC50 (second compound 3.16 µM): < 3.16 nM
IC50 (second compound 10 µM): < 3.16 nM
viability, T/C (second compound 0.0316 µM, first compound 0.00316 µM): 74.4%
viability, T/C (second compound 0.0316 µM, first compound 0.01 µM): 64.8%
viability, T/C [1]: 33.8%
viability, T/C [2]: 17.3%
viability, T/C [3]: 2.95%
viability, T/C [4]: 0.22%
viability, T/C (second compound 0.1 µM, first compound 0.00316 µM): 50.5%
viability, T/C (second compound 0.1 µM, first compound 0.01 µM): 56.1%
viability, T/C [7]: 33.5%
viability, T/C [8]: 18.5%
viability, T/C [9]: 2.54%
viability, T/C [10]: 0.32%
viability, T/C (second compound 0.316 µM, first compound 0.00316 µM): 61.2%
viability, T/C (second compound 0.316 µM, first compound 0.01 µM): 44.2%
viability, T/C [13]: 27.9%
viability, T/C [14]: 13.3%
viability, T/C [15]: 4.38%
viability, T/C [16]: 3.9%
viability, T/C (second compound 1 µM, first compound 0.00316 µM): 50.8%
viability, T/C (second compound 1 µM, first compound 0.01 µM): 37.3%
viability, T/C [19]: 18.8%
viability, T/C [20]: 6.93%
viability, T/C [21]: 1.63%
viability, T/C [22]: 0.35%
viability, T/C (second compound 3.16 µM, first compound 0.00316 µM): 47.6%
viability, T/C (second compound 3.16 µM, first compound 0.01 µM): 35.5%
viability, T/C [25]: 19.9%
viability, T/C [26]: 6.45%
viability, T/C [27]: 1.23%
viability, T/C [28]: 0.32%
viability, T/C (second compound 10 µM, first compound 0.00316 µM): 49.1%
viability, T/C (second compound 10 µM, first compound 0.01 µM): 30.9%
viability, T/C [31]: 10.6%
viability, T/C [32]: 5.7%
viability, T/C [33]: 1.04%
viability, T/C [34]: 0.31%
